Reference: ChEMBL document CHEMBL1137962, “New heteroarylbenzenesulphonamides as matrix metalloproteinase inhibitors” (Bioorg Med Chem Lett, 2004)

Columns and labels:
[1] = molecular target: 72 kDa type IV collagenase (Homo sapiens, UniProt P08253); assay: Inhibition of matrix metalloprotease-2
[2] = molecular target: Matrix metalloproteinase-9 (Homo sapiens, UniProt P14780); assay: Inhibition of matrix metalloprotease-9
Sequence of Matrix metalloproteinase-9 (P14780 whole entry): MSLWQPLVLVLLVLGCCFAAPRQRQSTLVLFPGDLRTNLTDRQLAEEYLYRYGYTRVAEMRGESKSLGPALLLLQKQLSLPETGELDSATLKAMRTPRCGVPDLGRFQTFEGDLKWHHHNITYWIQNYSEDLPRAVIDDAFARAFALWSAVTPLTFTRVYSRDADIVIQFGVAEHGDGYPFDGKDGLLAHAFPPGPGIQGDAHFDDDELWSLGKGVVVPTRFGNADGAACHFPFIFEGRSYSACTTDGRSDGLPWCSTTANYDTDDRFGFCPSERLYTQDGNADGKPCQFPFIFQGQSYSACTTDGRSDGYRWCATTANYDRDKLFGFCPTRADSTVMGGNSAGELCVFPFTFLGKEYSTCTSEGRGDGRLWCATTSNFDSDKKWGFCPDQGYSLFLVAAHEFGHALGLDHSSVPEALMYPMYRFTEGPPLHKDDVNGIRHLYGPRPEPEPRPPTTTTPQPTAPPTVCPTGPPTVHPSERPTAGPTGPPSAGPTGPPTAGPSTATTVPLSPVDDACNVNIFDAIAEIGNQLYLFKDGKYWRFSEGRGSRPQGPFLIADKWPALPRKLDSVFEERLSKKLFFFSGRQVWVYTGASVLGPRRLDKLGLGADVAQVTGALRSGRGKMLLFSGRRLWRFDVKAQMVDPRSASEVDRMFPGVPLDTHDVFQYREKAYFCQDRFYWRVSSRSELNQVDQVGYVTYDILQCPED

Sequence of 72 kDa type IV collagenase (P08253 whole entry): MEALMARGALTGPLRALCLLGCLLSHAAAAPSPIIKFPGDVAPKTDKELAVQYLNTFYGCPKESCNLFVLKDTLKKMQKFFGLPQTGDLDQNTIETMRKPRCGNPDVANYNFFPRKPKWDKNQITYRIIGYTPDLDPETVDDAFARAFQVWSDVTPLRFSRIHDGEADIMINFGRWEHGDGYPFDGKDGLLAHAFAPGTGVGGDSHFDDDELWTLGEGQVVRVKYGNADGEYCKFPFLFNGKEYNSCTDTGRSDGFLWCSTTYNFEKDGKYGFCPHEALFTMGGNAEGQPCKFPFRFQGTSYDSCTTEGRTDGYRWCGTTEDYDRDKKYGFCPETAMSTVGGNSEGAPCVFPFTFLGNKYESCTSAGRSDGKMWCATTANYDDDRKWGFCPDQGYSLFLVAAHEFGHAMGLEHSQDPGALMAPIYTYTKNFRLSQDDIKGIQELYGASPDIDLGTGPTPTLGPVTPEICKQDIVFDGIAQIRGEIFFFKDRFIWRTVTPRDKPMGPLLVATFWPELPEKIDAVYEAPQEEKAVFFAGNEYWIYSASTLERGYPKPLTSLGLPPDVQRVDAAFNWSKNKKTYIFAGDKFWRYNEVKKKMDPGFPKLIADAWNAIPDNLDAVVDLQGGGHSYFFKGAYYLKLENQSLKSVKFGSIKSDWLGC

IC50 [1]	IC50 [2]	SMILES
1000 nM	1000 nM	COc1ccc(-c2cnc(-c3ccc(S(=O)(=O)NC(C(=O)NO)C(C)C)cc3)o2)cc1 (centres undefined)
200 nM	200 nM	CNC(=O)[C@@H](CC(=O)[C@H](CC(C)C)[C@H](CSc1ccccc1)C(=O)NO)Cc1ccccc1
50 nM	50 nM	COc1ccc(-c2cnc(-c3ccc(S(=O)(=O)NC(CCC(=O)O)C(=O)O)cc3)s2)cc1 (centres undefined)
400 nM	900 nM	COc1ccc(-c2cnc(-c3ccc(S(=O)(=O)NC(C(=O)NO)C(C)C)cc3)s2)cc1 (centres undefined)
10000 nM	10000 nM	COc1ccc(-c2cnc(-c3ccc(S(=O)(=O)NC(C(=O)CCC(=O)O)C(C)C)cc3)o2)cc1 (centres undefined)
1000 nM	1000 nM	COc1ccc(-c2cnc(-c3ccc(S(=O)(=O)NC(C(=O)O)C(C)C)cc3)o2)cc1 (centres undefined)
200 nM	700 nM	COc1ccc(-c2cnc(-c3ccc(S(=O)(=O)NC(C(=O)O)C(C)C)cc3)s2)cc1 (centres undefined)
